Data on 2 molecules can be found in patent US20240366605A1, “USE OF QUINAZOLINONE COMPOUND FOR THE TREATMENT OF CANCER” (Hoffmann-La Roche Inc., priority 2021, published 2024).

Test [1] has as its system primary tumors from brain metastatic lesions progressing on BRAFi monotherapy or combination therapy with a MEKi. The test can be described thus: In vivo testing in primary tumors from brain metastatic lesions progressing on BRAFi or BRAFi/MEKi.
For test [2], the system named is subcutaneously implanted A375 tumours (BRAF V600E). The experiment in a line: Subcutaneous A375 luc melanoma model (peripheral disease). The format is in vivo, mice. The text has this: (§1) All animal experiments were approved by and performed according to the guidelines of the Institutional Animal Care Committee of the Vall d'Hebron Research Institute in agreement with the European Union and national directives. Female and male NOD scid gamma (NSG) mice of 4 to 5-week-old were purchased from Charles River.
For subcutaneous model, 5×10^6 A375 melanoma cells were subcutaneously injected into one flank of mice. Tumour growth was monitored with a Calipher.
The A375 cell line presenting BRAF V600E was used as melanoma model. The cell line was stably transduced with a luciferase expressing vector to facilitate tumor size monitoring. A375 luc were implanted subcutaneously to mimic peripheral disease and then randomized when tumors reached 100-300 mm^3. (10 mice/group). The mice were administered either Vehicle, Compound Ia 10 mg/kg (QD PO) or dabrafenib 100 mg/kg (QD PO). In a fourth treatment cohort, dabrafenib 100 mg/kg (QD PO) was administered until tumor relapse occurred, at which point dabrafenib treatment was discontinued and mice were instead treated with Compound Ia 10 mg/kg (QD PO).

Test [3] relates to intracranially implanted A375 tumours (BRAF V600E). The experiment in a line: Intracranial A375 luc melanoma model (brain metastatic setting). The class given is in vivo, mice.
Excerpt: as §1
For intracranial models, 5×10^5 A375 luc cells were stereotactically inoculated into the corpus striatum of the right brain hemisphere (1 mm anterior and 1.8 mm lateral to the […]; 2.5 mm intraparenchymal) of mice. Brain implanted tumors were monitored through regular Bioluminescence (BLI) signal detection and a relapse was determined upon observation of a progressive gradual increase of BLI signal.
The A375 cell line presenting BRAF V600E was used as melanoma model. The cell line was stably transduced with a luciferase expressing vector to facilitate tumor size monitoring. […] Brain implanted tumors were monitored through regular Bioluminescence (BLI) signal detection and a relapse was determined upon observation of a progressive gradual increase of BLI signal. […]
The A375 cell line presenting BRAF V600E was used as melanoma model. […] Brain implanted tumors were monitored through regular Bioluminescence (BLI) signal detection and a relapse was determined upon observation of a progressive gradual increase of BLI signal (total flux (p/s) was used to estimate tumour size). […]

[4] abbreviates: relapse under dabrafenib 100 mg/kg QD PO, caliper.

Each structure is given as a SMILES string.

Regarding `Cn1cnc2ccc(Oc3c(F)ccc(NS(=O)(=O)N4CC[C@@H](F)C4)c3C#N)cc2c1=O` [Compound Ia, (3R)—N-[2-cyano-4-fluoro-3-(3-methyl-4-oxo-quinazolin-6-yl)oxy-phenyl]-3-fluoro-pyrrolidine-1-sulfonamide], the antitumor activity result in test [1] is “potent antitumor activity”. The “responses, peripheral lesions” value in test [2] (peripheral compartment) is recorded as “long lasting responses”. For the same molecule, the “responses upon relapse to available BRAFi” value in test [2] (switch to Compound Ia after relapse, peripheral lesions) is reported as “dramatic responses”. The “responses, brain metastatic lesions” value in test [3] (brain compartment) is listed as “long lasting responses”. Further, the “responses upon relapse to available BRAFi and BRAFi/MEKi co-treatment” value in test [3] (switch to Compound Ia after relapse, brain lesions) is given as “dramatic responses”.
For the molecule `CC(C)(C)c1nc(-c2cccc(NS(=O)(=O)c3c(F)cccc3F)c2F)c(-c2ccnc(N)n2)s1` [dabrafenib, reference compound], in test [2] (setting [4]), the “Tumour size in relapse (mean value)” value turned out to be 558 mm^3 and the “Tumour size in relapse (range)” value was 300-700 mm3.
